Source: patent US20080214618A1, “Gastric Therapies Amd Compositions Therefor” (Auckland Uniservices Limited, priority 2004, published 2008)

What was measured:
[1] = system: Helicobacter pylori in mucus; assay: In vitro mucus/H. pylori test chamber model: survival of H. pylori in pig gastric mucus; format: cell-based, Helicobacter pylori (NCTC 11637)
Source text: FIG. 3 Diagram of apparatus used to model the mucus layer in digestive tract. This test chamber was designed as an in vitro model to investigate the barrier effect of mucus in protecting H. pylori from agents present in the lumen of the stomach. […] The mucus layer (C2), contains H. pylori, with numbers of colony forming units as specified. It is held as a 1 mm thick disc between the test chamber base (B and C4) and a stainless steel mesh (A and C1). This was then inserted into a Falcon tube containing broth (D). • A. Screw top lid with a recessed top containing a stainless steel grid. • B. Base with recessed well 1 mm deep×10 mm diameter that contains mucus (shaded area—see C2) • C. Cross sectional view of chamber (A & B). 1—stainless steel mesh, 2=mucus, 3=screw top lid, 4=base • D. Chamber in a Falcon tube covered with Iso-sensitest broth (with or without additives). An H. pylori (NCTC 11637) culture was mixed with pig gastric mucus for 40 min, and then H. pylori colonies were re-isolated by dilution and plating. The re-isolated strain was used in the experiments below. PCR of the 16S rDNA piece and sequencing was used to confirm that the re-isolated bacterial strain was H. pylori. H. pylori was grown by plating on Columbia agar (Oxoid) with 5% horse serum (Fort Richard) at 37° C. for 48 h under microaerophilic conditions (80% nitrogen, 15% carbon dioxide, 5% oxygen). Two loops of 48 h agar plate culture were inoculated into pre-warmed (37° C.) Iso-sensitest broth (Oxoid) containing 5% horse serum and incubated for 24 h under microaerophilic conditions. This 24 h H. pylori broth culture (500 μL) was added to 3.5 g of thawed pre-warmed pig gastric mucus (previously frozen at −20° C.) and mixed. […] Final concentrations of surviving H. pylori colony forming units (cfu) were calculated per gram of mucus. […] Abbreviations used are: FA=0.1 or 0.2 mM lauric acid; TW=0.05% Tween 20; OM=0.58 mM omeprazole; NAC=0.245 M N-acetylcysteine. • (a) Calculated H. pylori cfu's initially added per gram of mucus. […]

H. pylori = assay: Survival / MBC of H. pylori in standard incubations (40 min, 37° C., pH 7.4); format: cell-based, Helicobacter pylori; conditions: for effect on H. pylori viability of each ingredient by itself at low concentration: 0.3 mM FA C12:0, 0.05% Tween 20, 200 μg/ml lansoprazole, each alone
Method: FIG. 1 The survival of H. pylori in the presence of: FA C12:0 only (▴); FA C12:0 plus 100 μg/mL lansoprazole ([…]); FA C12:0 plus 200 μg/mL lansoprazole (▪); FA C12:0 plus 300 μg/mL lansoprazole (▾); FA C12:0 plus 400 μg/mL lansoprazole (♦); FA C12:0 plus 0.05% (w/w) Tween 20 (Δ); FA C12:0 plus 100 μg/mL lansoprazole plus 0.05% (w/w) Tween 20 (◯); FA C12:0 plus 200 μg/mL lansoprazole plus 0.05% (w/w) Tween 20 (□). Cells were incubated at pH 7.4 for 40 min at 37° C.
FIG. 2 The effect of lansoprazole on the survival of H. pylori in the presence of 0.05% Tween 20 (▴), and in its absence (Δ). Cells were incubated at pH 7.4 for 40 min at 37° C.
FIG. 4 The effect of monolaurin (MG C12) on survival of H. pylori in the absence (squares) and presence (diamonds) of Tween 80 (0.4%, w/v), after 40 min exposure at 37° C. and initial pH 7.4.
These can be selected from any one or more of capric acid, lauric acid, myristic acid, myristoleic acid, palmitoleic acid, linolenic acid, monolaurin or monomyristin for example. This list is not intended to be limiting. Reference can also be made to Table 1 of Sun et al FEMS Immun. Med. Microbiol. 36, 9-17, 2003 (the disclosure of which is included herein by way of reference). The MBC is the minimum concentration of agent(s) that result(s) in a 5 log units decrease in viable cell numbers.
The effects of combinations of lansoprazole (0-400 μg/mL), 0.05% Tween 20, and FA C12:0 (0.1-1.0 mM) on the viability of H. pylori were examined in standard incubations. The results are shown in FIG. 1, and the MBCs for FA C12:0, with different combinations of lansoprazole and Tween 20, are summarised in Table 1.
Experiments to Examine Possible Interactions Between Monolaurin (MG C12) and Tween 80. The concentration profile of monolaurin on the survival of H. pylori was tested in the presence and absence of 0.4% (w/v) Tween 80, and the results are shown in FIG. 4. MG C12 on its own, has little effect in the range 0-0.3 mM. However in the range 0.3-0.5 mM MG C12 there is a sharp increase in bactericidal potency, and the killing increased by >5 log units (FIG. 4, squares).

Row | Structure (SMILES) | effect of FA on its own on H. pylori survival in mucus ([1]; 0.1 mM FA experiment) | H. pylori numbers (cfu per g mucus) using 0.1 mM FA ([1]; 0.1 mM lauric acid, TW=0.05% Tween 20, OM=0.58 mM omeprazole, NAC=0.245 M N-acetylcysteine, 40 min, 37° C., pH 7.0, broth-alone control 1.29 × 10^6) | H. pylori numbers (cfu per g mucus) using 0.2 mM FA ([1]; 0.2 mM lauric acid, TW=0.05% Tween 20, OM=0.58 mM omeprazole, NAC=0.245 M N-acetylcysteine, 40 min, 37° C., pH 7.0, broth-alone control 2.64 × 10^4) | effect on H. pylori viability of each ingredient by itself at low concentration (H. pylori) | MBC (H. pylori; Helicobacter pylori, 40 min, MBC of FA C12:0 in medium with the stated additions, 40 min incubation with H. pylori at 37° C. and pH 7.4, MBC = concentration giving 5 log units decrease in viable cells, read-out: MBC (minimal bactericidal concentration of FA C12:0)) | killing of H. pylori (H. pylori; 0.5 mM monolaurin in the absence of Tween 80, 40 min, 37° C., initial pH 7.4) | killing of H. pylori (H. pylori; 0.5 mM monolaurin with 0.4% Tween 80 present, 40 min, 37° C., initial pH 7.4) | effect of MG C12 on its own on survival of H. pylori (H. pylori; range 0-0.3 mM MG C12, no Tween 80, 40 min, 37° C., initial pH 7.4) | increase in killing of H. pylori (H. pylori; range 0.3-0.5 mM MG C12 on its own, 40 min, 37° C., initial pH 7.4) | effect of lansoprazole by itself on H. pylori in vitro (H. pylori; concentrations below 400 μg/mL, Midolo et al observation, confirmed by FIG. 2 (pH 7.4, 40 min, 37° C.))
1 | CCCCCCCCCCCC(=O)O [FA C12:0, lauric acid] | minimal effect | 1.85 × 10^5 cfu per g mucus | 2.59 × 10^4 cfu per g mucus | no effect | 1000 µM |  |  |  |  | 
2 | CCCCCCCCCCCC(=O)OCC(O)CO (centres unmarked) [MG C12, monolaurin] |  |  |  |  |  | > 5 logs | 3 logs | little effect | > 5 log units | 
3 | Cc1c(OCC(F)(F)F)ccnc1C[S+]([O-])c1nc2ccccc2[nH]1 (centres unmarked) [lansoprazole, reference compound] |  |  |  | no effect |  |  |  |  |  | little effect
